# Patent US6521670B1, “Insect control method and composition” (BioAdvantage, Inc., priority 2000, dated 2003)
# Test system: flies, bees, wasps, and other winged insects
# Assay: vaporized 1,4-DMN treatment of a closed potato storage facility
# Format: in vivo
# Protocol: The concentration of vapor of 1,4-DMN in the atmosphere of the storage facility was rather low. […] In the experiment, 500 milliliters and 188 milliliters of 1,4-DMN were vaporized and used. Both concentrations were effective. The facility was in a closed state for about 48 hours.
# The ventilation system of the storage facility had been shut off so that there was no fresh air entering the building and the building was not being evacuated during the 1,4-DMN vapor treatment. The effect of the 1,4-DMN on insects within the storage facility was fairly immediate with substantially all the insects being killed within about 24 hours. In regions or facilities with dangerous insects, or where there is a large concentration of less-dangerous insects, such as bees, wasps and the like, which would create risks to workers, a closed facility may be treated to make it safe. Dangerous insects such as spiders, scorpions and the like may also effectively be treated in this manner with 1,4-DMN.
compound,measurement,setting,value
"Cc1ccc(C)c2ccccc12 [1,4-DMN, 1,4-dimethylnaphthalene]",time until substantially all the insects were killed,"1,4-DMN vapor treatment, closed storage facility without ventilation",≤ 24 h
same,insecticidal effectiveness of vapor treatment,"188 milliliters of 1,4-DMN vaporized, head space about 9,000 cubic feet, closed about 48 hours",effective
same,insecticidal effectiveness of vapor treatment,"500 milliliters of 1,4-DMN vaporized, head space about 9,000 cubic feet, closed about 48 hours",effective
same,"effect of vaporized 1,4-DMN on insects contained within a potato storage facility","vapor, closed facility of approximately 10,000 cubic feet, head space about 9,000 cubic feet, closed about 48 hours, ventilation shut off",killed or placed in a state of stupor
